Measured values from US20230127559A1, “PEPTIDE ANALOGS AND USE OF SAME IN TREATING DISEASES, DISORDERS OR CONDITIONS ASSOCIATED WITH MUTANT P53 PROTEIN” (YEDA RESEARCH AND DEVELOPMENT CO. LTD., priority 2020, published 2023).
Where a SMILES comes first, the peptide text is derived from it. Bridges are numbered along the chain shown (N, C = ends). [ ]: non-standard residue; d: D form. The star is where a group is joined. Docosanoyl = CCCCCCCCCCCCCCCCCCCCCC(=O)*; Oic = O=C(O)[C@@H]1C[C@@H]2CCCC[C@@H]2N1; Arachidoyl = CCCCCCCCCCCCCCCCCCCC(=O)*; Stearoyl = CCCCCCCCCCCCCCCCCC(=O)*; Palmitoyl = CCCCCCCCCCCCCCCC(=O)*; Dab = NCC[C@H](N)C(=O)O

Experiments:
[1] = test system: RXF-393 (renal carcinoma) cells, p53R175H; format: cell-based, human; conditions: for IC50: 48 h; for increase in efficacy relative to pCAP-553: FIG. 17, effect of fatty acid length
Description: (§1) Cells were cultured in 96 wells plates with 2500-4000 cells/well. Serial dilutions of different peptides were added and the plates incubated for additional 48 h at 37° C. Then medium was removed and cell viability was determined by staining the cells with crystal violet (0.05%) in methanol/PBS (1:5, v/v), for 10 min, followed by 3 washes with PBS. 10% acetic acid was added to each well for 10 min. OD was determined at 595 nm.
The IC50 tables presented in FIGS. 17-20 are from several representative experiments performed on cell lines expressing several p53 hotspot mutations, as well as control non-transformed cells:
Fatty acid position. Lead peptides were modified with N-terminal myristic acid to enable the penetration of peptides across the cell membrane. Although myristic acid is usually the default choice for cell permeability, additional options were explored of longer fatty acids and to examine the effect on peptide efficacy in terms of cancer cell killing. A standard crystal violet viability test was performed on human renal carcinoma RXF-393 cells, comparing the original pCAP-553, which has myristic acid (C14), with 4 derivative peptides modified with longer fatty acid chains: palmitic (C16), stearic (C18), […] (C20) and behenic (C22).

[2] = test system: PANC1 (pancreatic carcinoma) cells, p53R273H; format: cell-based; conditions: 48 h
Description: as §1
(§2) The IC50 tables presented in FIGS. 17-20 are from several representative experiments performed on cell lines expressing several p53 hotspot mutations, as well as control non-transformed cells: […]

[3] = test system: PC9 (lung carcinoma) cells, p53R248Q; format: cell-based; conditions: 48 h
Description: as §1, §2

[4] = test system: WI38 (non-transformed fibroblasts) cells, wtp53; format: cell-based; conditions: 48 h
Description: as §1, §2

[5] = test system: SW-480 (colon carcinoma) cells, p53R273H, P309S; format: cell-based; conditions: 48 h
Description: as §1, §2

Row | Compound | IC50 [1] [nM] | IC50 [2] [nM] | IC50 [3] [nM] | IC50 [5] [nM] | IC50 [4] [nM] | increase in efficacy relative to pCAP-553 [1]
1 | pam-RRHSvP(Dab)PD-NH2 (Palmitoyl-RRHS[dV]P[Dab]PD-NH2) [pCAP-673, pam—Palmitic] |  |  |  |  |  | two-fold increase in efficacy
2 | CCCCCCCCCCCCCCCCCC(=O)N[C@@H](CCCNC(=N)N)C(=O)N[C@@H](CCCNC(=N)N)C(=O)N[C@H]1CCCCNC(=O)[C@H](CC(=O)O)NC(=O)[C@@H]2CCCN2C(=O)[C@H](CCN)NC(=O)[C@@H]2CCCN2C(=O)[C@@H](C(C)C)NC(=O)[C@H](CO)NC(=O)[C@H](Cc2c[nH]cn2)NC1=O [pCAP-715, str-RRKHSvP(Dab)PD-Cyc] (Stearoyl-RRKHS[dV]P[Dab]PD; lactam 3-C) | 480 |  | 250 | 540 | > 40000 | 
3 | CCCCCCCCCCCCCCCCCC(=O)N[C@@H](CCCNC(=N)N)C(=O)N[C@@H](CCCNC(=N)N)C(=O)N[C@H]1CCCCNC(=O)[C@H](CC(=O)O)NC(=O)[C@@H]2CCCN2C(=O)[C@H](CCN)NC(=O)[C@@H]2CCCN2C(=O)[C@@H](C(C)C)NC(=O)[C@H](CO)NC1=O [pCAP-714, str-RRKSvP(Dab)PD-Cyc] (Stearoyl-RRKS[dV]P[Dab]PD; lactam 3-C) | 570 |  | 800 | 1090 | > 40000 | 

Second part, led by results:

Row | IC50 [1] [nM] | IC50 [2] [nM] | IC50 [3] [nM] | IC50 [5] [nM] | Compound | IC50 [4] [nM] | increase in efficacy relative to pCAP-553 [1]
4 | 370 | 2210 | 720 |  | CCCCCCCCCCCCCCCCCC(=O)N[C@@H](CCCNC(=N)N)C(=O)N[C@@H](CCCNC(=N)N)C(=O)N[C@@H](Cc1c[nH]cn1)C(=O)N[C@@H](CO)C(=O)N[C@@H](C(=O)N1CCC[C@H]1C(=O)N[C@@H](CCN)C(=O)N1CCC[C@H]1C(=O)N[C@@H](CC(=O)O)C(N)=O)C(C)C [pCAP-718, str-RRHSvP(Dab)PD-NH2 ion ex] (Stearoyl-RRHS[dV]P[Dab]PD-NH2) | > 40000 | 
5 | 400 |  | 260 | 800 | CCCCCCCCCCCCCCCCCCCC(=O)N[C@@H](CCCNC(=N)N)C(=O)N[C@@H](CCCNC(=N)N)C(=O)N[C@@H](Cc1c[nH]cn1)C(=O)N[C@@H](CO)C(=O)N[C@@H](C(=O)N1CCC[C@H]1C(=O)N[C@@H](CCN)C(=O)N1CCC[C@H]1C(=O)N[C@@H](CC(=O)O)C(N)=O)C(C)C [pCAP-706, arc-RRHSvP(Dab)PD-NH2] (Arachidoyl-RRHS[dV]P[Dab]PD-NH2) | 15000 | 
6 |  |  | 210 | 600 | CCCCCCCCCCCCCCCCCC(=O)N[C@@H](CCCNC(=N)N)C(=O)N[C@@H](CCCNC(=N)N)C(=O)N[C@@H](Cc1c[nH]cn1)C(=O)N[C@@H](CO)C(=O)N[C@@H](C(=O)N1CCC[C@H]1C(=O)N[C@@H](CCN)C(=O)N1CCC[C@H]1C(=O)N[C@@H](CC(=O)O)C(N)=O)C(C)C [pCAP-674, str-RRHSvP(Dab)PD-NH2] (Stearoyl-RRHS[dV]P[Dab]PD-NH2) | 36000 | four-fold increase in efficacy
7 | 2600 |  | 1600 | 3000 | CCCCCCCCCCCCCCCCCC(=O)N[C@@H](CCCNC(=N)N)C(=O)N[C@@H](CCCNC(=N)N)C(=O)N[C@@H](Cc1c[nH]cn1)C(=O)N[C@@H](CO)C(=O)N[C@@H](C(=O)N1[C@H](C(=O)N[C@@H](CCN)C(=O)N2CCC[C@H]2C(=O)N[C@@H](CC(=O)O)C(N)=O)C[C@@H]2CCCC[C@@H]21)C(C)C [pCAP-711, str-RRHSv(Oic)(Dab)PD] (Stearoyl-RRHS[dV][Oic][Dab]PD-NH2; N-terminus and C-terminus assumed) | > 40000 | 
8 | 1500 |  | 1500 | 3000 | CCCCCCCCCCCCCCCCCCCCCC(=O)N[C@@H](CCCNC(=N)N)C(=O)N[C@@H](CCCNC(=N)N)C(=O)N[C@@H](Cc1c[nH]cn1)C(=O)N[C@@H](CO)C(=O)N[C@@H](C(=O)N1CCC[C@H]1C(=O)N[C@@H](CCN)C(=O)N1CCC[C@H]1C(=O)N[C@@H](CC(=O)O)C(N)=O)C(C)C [pCAP-707, Beh-RRHSvP(Dab)PD-NH2] (Docosanoyl-RRHS[dV]P[Dab]PD-NH2) | 12000 | 
